Test results published in patent publication US6610273B2, “Process for making chemically stable C-17/21 OH 20-ketosteroid aerosol products” (3M Innovative Properties Company, priority 1999, dated 2003).

How the values were obtained:
[1] = assay type: physicochemical
Description: (§1) At ambient temperature, a 3 mL ethanol solution of budesonide (0.007 M) was mixed with 0.1 g of aluminum oxide (Aldrich, neutral, activated Brockmann I, 150 mesh), which mimics aluminum oxide existing on the inner surface of aluminum containers. Each aliquot was filtered with a syringe filter and diluted with acetonitrile by 20 times for HPLC analysis to determine the recovery of budesonide with respect to the initial concentration. The recoveries of budesonide were compared with a reference, which contained the same concentration of budesonide but in ethanol solution without aluminum oxide.
as §1, with “triamcinolone acetonide” for “budesonide”
as §1, with “dexamethasone” for “budesonide”, “aliquote” for “aliquot”, “recoveries” for “recovery”, “inital” for “initial”

[2] = cited from earlier work; for Chemical stability of solution MDI formulation (in words): solution formulations, HFC propellant, prior publications
[3] = Solubility testing of budesonide in P134a and P227 formulations at approximately 5° C.; assay type: physicochemical

SMILES: CCC(=O)O[C@]1(C(=O)CO)[C@@H](C)C[C@H]2[C@@H]3CCC4=CC(=O)C=C[C@]4(C)[C@@]3(Cl)[C@@H](O)C[C@@]21C [beclomethasone 17-monopropionate]
- Degradation rate in ethanol/Al2O3 relative to isomer 21-BMP (17-OH) [1]: about 100 times

SMILES: CC(C)C(=O)OCC(=O)[C@@]12O[C@H](C3CCCCC3)O[C@@H]1C[C@H]1[C@@H]3CCC4=CC(=O)C=C[C@]4(C)[C@H]3[C@@H](O)C[C@@]12C [ciclesonide]
- Chemical stability of solution MDI formulation (in words) [2]: surprisingly chemically stable

SMILES: CC1(C)O[C@@H]2C[C@H]3[C@@H]4CCC5=CC(=O)C=C[C@]5(C)[C@@]4(F)[C@@H](O)C[C@]3(C)[C@]2(C(=O)CO)O1 [triamcinolone acetonide]
- Degradation in aqueous formulations (in words) ([2]; aqueous formulations in neutral or basic solutions, WO96/40042): undergo oxidative degradation catalyzed by trace levels of metal ions

SMILES: CCC(=O)OCC(=O)[C@@]1(OC(=O)CC)[C@@H](C)C[C@H]2[C@@H]3CCC4=CC(=O)C=C[C@]4(C)[C@@]3(Cl)[C@@H](O)C[C@@]21C [beclomethasone dipropionate]
- Chemical stability of solution MDI formulation (in words) [2]: surprisingly chemically stable

SMILES: C[C@@H]1C[C@H]2[C@@H]3CCC4=CC(=O)C=C[C@]4(C)[C@@]3(F)[C@@H](O)C[C@]2(C)[C@@]1(O)C(=O)CO [dexamethasone]
- Degradation in the presence of aluminum oxide (in words) [1]: completely degrades

SMILES: CCCC1O[C@@H]2C[C@H]3[C@@H]4CCC5=CC(=O)C=C[C@]5(C)[C@H]4[C@@H](O)C[C@]3(C)[C@]2(C(=O)CO)O1 (stereo partly drawn) [budesonide]
- Budesonide Solubility, MEAN ([3]; P134a, 5° C.): 0.012 mg/g
- Budesonide Solubility, sample 1 ([3]; P134a, 5° C.): 0.013 mg/g
- Budesonide Solubility, sample 2 ([3]; P134a, 5° C.): 0.010 mg/g
- Budesonide Solubility, MEAN ([3]; P134a/5% EtOH, 5° C.): 0.465 mg/g
- Budesonide Solubility, sample 1 ([3]; P134a/5% EtOH, 5° C.): 0.459 mg/g
- Budesonide Solubility, sample 2 ([3]; P134a/5% EtOH, 5° C.): 0.471 mg/g
- Budesonide Solubility, MEAN ([3]; P134a/10% EtOH, 5° C.): 1.382 mg/g
- Budesonide Solubility, sample 1 ([3]; P134a/10% EtOH, 5° C.): 1.370 mg/g
- Budesonide Solubility, sample 2 ([3]; P134a/10% EtOH, 5° C.): 1.394 mg/g
- Budesonide Solubility, MEAN ([3]; P134a/15% EtOH, 5° C.): 2.699 mg/g
- Budesonide Solubility, sample 1 ([3]; P134a/15% EtOH, 5° C.): 2.686 mg/g
- Budesonide Solubility, sample 2 ([3]; P134a/15% EtOH, 5° C.): 2.711 mg/g
- Budesonide Solubility, MEAN ([3]; P134a/20% EtOH, 5° C.): 4.360 mg/g
- Budesonide Solubility, sample 1 ([3]; P134a/20% EtOH, 5° C.): 4.329 mg/g
- Budesonide Solubility, sample 2 ([3]; P134a/20% EtOH, 5° C.): 4.390 mg/g
- Budesonide Solubility, MEAN ([3]; P227, 5° C.): 0.016 mg/g
- Budesonide Solubility, sample 1 ([3]; P227, 5° C.): 0.017 mg/g
- Budesonide Solubility, sample 2 ([3]; P227, 5° C.): 0.015 mg/g
- Budesonide Solubility, MEAN ([3]; P227/5% EtOH, 5° C.): 0.657 mg/g
- Budesonide Solubility, sample 1 ([3]; P227/5% EtOH, 5° C.): 0.652 mg/g
- Budesonide Solubility, sample 2 ([3]; P227/5% EtOH, 5° C.): 0.661 mg/g
- Budesonide Solubility, MEAN ([3]; P227/10% EtOH, 5° C.): 1.703 mg/g
- Budesonide Solubility, sample 1 ([3]; P227/10% EtOH, 5° C.): 1.698 mg/g
- Budesonide Solubility, sample 2 ([3]; P227/10% EtOH, 5° C.): 1.707 mg/g
- Budesonide Solubility, MEAN ([3]; P227/15% EtOH, 5° C.): 2.98 mg/g
- Budesonide Solubility, sample 1 ([3]; P227/15% EtOH, 5° C.): 2.952 mg/g
- Budesonide Solubility, sample 2 ([3]; P227/15% EtOH, 5° C.): 3.008 mg/g
- Budesonide Solubility, MEAN ([3]; P227/20% EtOH, 5° C.): 4.435 mg/g
- Budesonide Solubility, sample 1 ([3]; P227/20% EtOH, 5° C.): 4.387 mg/g
- Budesonide Solubility, sample 2 ([3]; P227/20% EtOH, 5° C.): 4.483 mg/g
- Degradation in the presence of aluminum oxide (in words) [1]: almost totally consumed
